Data published in the supplement of paper PMC10307832.

Key:
Assay in all cases: relative viability (nuclei count vs DMSO), 5 days (fraction); higher = more cells survive
[1] = compound: CC1CC(=O)N(C2=CN=C(N=C2N1C3CCCC3)NC4=C(C=C(C=C4)C(=O)NC5CCN(CC5)C)OC)C [NPK76-II-72-1] + CC(C)C[C@H](NC(=O)[C@H](Cc1ccccc1)NC(=O)c1cnccn1)B(O)O [Bortezomib] (partner 0.002 µM)
Procedure, shortened: (§1)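 A single step with final 0.05% Triton X-100, 1% formaldehyde and 1 ug/ml Hoechst fixed the cells and stained nuclei 5 days after treatment. Lung cancer cell lines in 1536-well plates had been treated by pin tool the day after seeding with one drug alone or a fixed anchor-drug dose plus five library-drug doses (not always all listed) in √10 steps, and nuclei were counted on 4× images. Relative viability is the ratio of nuclei in treated wells to nuclei in vehicle wells, taken as the median of duplicate plates.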

[2] = compound: CC[C@@H]1C(=O)N(C)c2cnc(Nc3ccc(C(=O)NC4CCN(C)CC4)cc3OC)nc2N1C1CCCC1 [BI-2536] + NC(=O)Nc1cc(-c2cccc(F)c2)sc1C(=O)N[C@H]1CCCNC1 [AZD7762] (partner 0.2 µM)
Procedure, shortened: as §1

[3] = compound: CC1CC(=O)N(C2=CN=C(N=C2N1C3CCCC3)NC4=C(C=C(C=C4)C(=O)NC5CCN(CC5)C)OC)C [NPK76-II-72-1] + O=C(CCCCCCC(=O)Nc1ccccc1)NO [Vorinostat] (partner 1 µM)
Procedure, shortened: as §1

[4] = compound: CC[C@@H]1C(=O)N(C)c2cnc(Nc3ccc(C(=O)NC4CCN(C)CC4)cc3OC)nc2N1C1CCCC1 [BI-2536] + N=C(N)NC(=N)NCCc1ccccc1 [Phenformin] (partner 250 µM)
Procedure, shortened: as §1

Cell Line	relative viability ([1]; first compound 0.01 µM)	relative viability ([1]; first compound 0.03162 µM)	relative viability ([1]; first compound 0.1 µM)	relative viability ([1]; first compound 0.3162 µM)	relative viability ([1]; first compound 1 µM)	relative viability ([2]; first compound 0.01 µM)	relative viability ([2]; first compound 0.03162 µM)	relative viability ([2]; first compound 0.1 µM)	relative viability ([2]; first compound 0.3162 µM)	relative viability ([2]; first compound 1 µM)	relative viability ([3]; first compound 0.01 µM)	relative viability ([3]; first compound 0.03162 µM)	relative viability ([3]; first compound 0.1 µM)	relative viability ([3]; first compound 0.3162 µM)	relative viability ([3]; first compound 1 µM)	relative viability ([4]; first compound 0.01 µM)	relative viability ([4]; first compound 0.03162 µM)	relative viability ([4]; first compound 0.1 µM)	relative viability ([4]; first compound 0.3162 µM)	relative viability ([4]; first compound 1 µM)
NCI-H1703	0.255	0.316	0.323	0.318	0.348	0.141	0.174	0.0928	0.0808	0.0722										
SK-LU-1	0.931	1.15	0.829	1.23	1.42						0.722	0.77	0.756	0.77	0.851	0.577	0.321	0.209	0.12	0.151
COR-L 105	0.699	0.982	0.848	0.672	1.12						0.747	0.807	0.832	0.82	0.989	0.507	0.483	0.311	0.215	0.21
Calu-6	0.992	1.03	1.16	0.894	1.06															
NCI-H358						0.64	0.408	0.266	0.153	0.177	0.674	0.647	0.754		0.818	0.363	0.172	0.0663	0.0665	0.072
NCI-H1944						0.476	0.611	0.269	0.12	0.13	0.49	0.583	0.508	0.485	0.646	0.206	0.243	0.122	0.0925	0.113
NCI-H2342							0.459	0.411	0.267	0.349	0.742	0.917	0.783	0.658	0.763	0.547	0.586	0.649	0.283	0.341
EBC-1	0.543	0.63	0.608	0.562	0.713															
NCI-H1299	0.994	1.07	1.02	1.02	1															
NCI-H2228	0.799	0.81	0.935	0.942	1.31						0.543	0.608	0.587	0.589	0.578	0.328	0.214	0.129	0.106	0.102
NCI-H522						0.826	0.879	0.944	0.302	0.365	0.736	0.902	0.995		0.79	0.525	0.641	0.404	0.446	0.401
IA-LM	0.738	0.798	0.871	0.933	0.857						1.1	0.923	0.852	1.03	1.1					
SK-MES-1											1.06	1.05	1.12	1.17	1.22	0.704	0.626	0.209	0.162	0.167
NCI-H2170						0.854	0.83	0.184	0.146	0.2	0.731	0.855	0.823	0.38	0.941	0.435	0.413	0.34	0.167	0.202
SW 1573	1.13	1.04	0.822	1.04	1.27						0.787	0.916	0.637	0.532	0.831	0.333	0.283	0.131	0.106	0.0811
NCI-H661	0.912	0.793	0.688	0.647	0.854						0.772	0.785	0.755	0.735	0.795	0.263	0.224	0.216	0.198	0.206
NCI-H1793						0.45	0.519	0.102	0.128	0.123		0.693	0.809	0.61	0.825	0.369	0.197	0.149	0.138	0.139
NCI-H520	0.731	0.766	0.385	0.514	0.544						0.706	0.84	0.698	0.741	0.748	0.572	0.408	0.218	0.255	0.281
NCI-H2023	0.968	1.09	1.15	1.01	1.23						0.504	0.655	0.69	0.563	0.614	0.406	0.408	0.119	0.0985	0.0823
NCI-H2009	1.01	1.1	1.09	0.842	1.24						0.696	0.713	0.705	0.728	0.77	0.468	0.406	0.233	0.183	0.105
